The record followed here is PubChem BioAssay (NCI).

Some test systems named below: MDA-MB-231 breast; IGROV1 ovarian; HT29 colon; SK-OV-3 ovarian; MOLT-4 leukemia; M14 melanoma; EKVX NSCLC; RPMI-8226 leukemia; A498 renal; CCRF-CEM leukemia.
What all share (test): NCI anticancer screen, dose series, 48 h

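Tested at 5 concentrations; 48 h exposure; 96-well plates; endpoints linearly interpolated, else capped at highest concentration. TGI denotes the concentration required for complete inhibition of growth.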

`COC(=O)CCCc1nc2ccccc2nc1N=Nc1ccccc1`: the TGI was above 100 µM in the experiment on MDA-MB-231 breast; above 100 µM in the experiment on IGROV1 ovarian; above 100 µM with HT29 colon; above 100 µM in the experiment on SK-OV-3 ovarian; 26.3 µM in the experiment with MOLT-4 leukemia; 76.7 µM in the experiment on M14 melanoma. For the same molecule, the TGI is above 100 µM with EKVX NSCLC, 98.8 µM with RPMI-8226 leukemia, above 100 µM with A498 renal and 72.7 µM with CCRF-CEM leukemia.
